Results on three molecules are retold here after US10046038B2, “Leptospira with increased antigenic mass” (priority 2012, dated 2018).

Like-named read-outs stand apart in the source and are kept apart here.

In data set [1] the test system is Leptospira serogroup Australis (serovar Bratislava). The class given is cell-based, L. interrogans (sensu lato). Conditions: linoleic acid supplementation of low LA BSA medium.
Data set [2] relates to Leptospira serogroup Tarassovi. The class given is cell-based, L. interrogans (sensu lato). The settings on record: EMJH standard BSA, vs unsupplemented reference culture. The protocol: (§1) All experiments were performed in 0.5, 2 or 20 L working volume, computer-controlled fermenters (Sartorius), which were filled with 0.5, 1 or 10 L sterile-filtered EMJH medium, respectively. The standard EMJH medium contained 1% w/v BSA and 0.125% w/v polysorbate 80. The pH of the medium was 7.4 ±0.1 at start. The fermenter was inoculated with 5% v/v serogroup lcterohaemorrhagiae pre-culture (passage 5), giving an inoculation density of 2-4×10^7 cells/ml at day 0.
(§2) Supplementation was done either with pure linoleic acid (Sigma Aldrich, >99% pure) as a 10% v/v stock in absolute ethanol (JT Baker). Alternatively, linoleic acid was supplemented by using a BSA that was created with a high level of linoleic acid (high LA BSA). This high LA BSA was used either to replace a standard BSA in EMJH medium, or was used in addition to BSA in the EMJH medium, in which case it was added as a 25% w/v stock solution in sterile water. The high LA BSA or the pure linoleic acid/ethanol supplements were fed to a fermenter over the course of 4 hours, at 0.1-0.2 ml/hour, until the fermenter culture had received a desired total amount of linoleic acid. Different total available levels of linoleic acid have been tested, of between about 5 and 425 μg/ml in the total volume. The fermenter cultures of Leptospira were supplemented at different cell-densities i.e. at early-, mid- or end phase culture.
(§3) Daily 5 ml samples were taken aseptically, directly from the fermenter, for analyses of total cell count (by Petroff-Hausser counting chamber); antigenic mass (by antigen amount Elisa); inactivated cells; and for profiling of the fatty acid type and-relative amounts (by gas chromatography) in the culture medium.
(§4) Samples were inactivated with 0.1 or 0.2% v/v BPL, at 29° C. for 16-24 hours. The inactivated Leptospira were tested in an antigen Elisa within 24 hours.
(§5) For a reference see: R. A. Hartskeerl et al., (International course on laboratory methods for the diagnosis of Leptospirosis, 4th Edition, 1 Apr. 2004. Royal Tropical Institute, Amsterdam).
(§6) The Elisa's were set up as capture assays, whereby the same moab was used for coating and for detection.
A reference standard was prepared for each Leptospira strain that was tested by antigen Elisa. The standard is a batch of monovalent Leptospira antigen, from inactivated cells. This was prepared using common techniques, essentially by proliferating a specific strain of Leptospira in EMJH medium as described above, and was inactivated as described before. Next the standard was concentrated and/or diluted in phosphate buffered saline, to contain about 1×10^9 cells/ml. An arbitrary number of antigen units was affixed to the sample, for example: 1000 Units/ml. When the standard needed replenishing, a subsequent preparation of the same standard, was compared and titrated alongside the old standard several times, before replacing it.
As before, the average antigenic mass score by Elisa was calculated per 1×10^9 cells (pre-inactivation). […] The average antigenic mass 1×10^9 cells of the reference culture was set at 0% increase.
Both alpha-and gamma C18:3 were purchased as pure chemicals (>98%).

The test system of data set [3] is Leptospira serogroup Icterohaemorrhagiae. The data set can be described thus: Biomass (total cell count) and toxicity in fermenter culture. The class given is cell-based, L. interrogans (sensu lato). The settings on record: additional 400 μg/ml pure linoleic acid in ethanol; EMJH with high LA BSA. How it is done:
(§7) During all fermentation experiments the temperature was controlled at about 29° C. The medium was aerated with headspace airflow, and the dissolved oxygen (pO2) concentration was controlled by automatic variation of the agitation-rate, to maintain a set pO2 concentration. Temperature, pH and pO2 concentration were monitored online, but pH and foam formation were not controlled.

The test system is the same in data set [4]. The data set can be described thus: Antigenic mass of fermenter culture by antigen Elisa. The class given is cell-based, L. interrogans (sensu lato). Conditions: for relative Ag. mass (%): non-supplemented = 100. How it is done:
A working seed of a strain of L. interrogans was inoculated into EMJH medium and incubated at 29° C. for 3 to 5 days. If needed up to 5 consecutive pre-culture passages could be made, whereby the pre-cultures were visually inspected for sufficient proliferation (turbidity) as criterion for transfer to the next passage.
as §1, §7
In comparative experiments up to 4 fermenters were run in parallel, which started off simultaneously with the same medium and Leptospira inoculum. One fermenter then usually contained only standard EMJH medium and served as reference, while in the others different supplementations of polyunsaturated C18 fatty acid were made.
as §2, §3, §4, §5, §6
A reference standard was prepared for each Leptospira strain that was tested by antigen Elisa. The standard is a batch of monovalent Leptospira antigen, from inactivated cells. This was prepared using common techniques, essentially by proliferating a specific strain of Leptospira in EMJH medium as described above, and was inactivated as described before.

Data set [5] relates to Leptospira serogroup Tarassovi. In words: Biomass and toxicity in fermenter culture. The settings on record: 300 μg/ml C18:2; EMJH standard BSA. The class given is cell-based, L. interrogans (sensu lato). The protocol:
In a supplementation similar to that described in Example 6 above, the effect of supplementation with different amounts of C18:2 fatty acid on the biomass and the antigenic mass of a culture of Leptospira serogroup Tarassovi in EMJH medium with standard BSA was tested.

Data set [6] relates to Leptospira serogroup Grippotyphosa. The class given is cell-based, L. interrogans (sensu lato).
The next data set has as its system Leptospira. Conditions: most serogroups other than Canicola; alpha or gamma isomer.
In data set [7] the test system is Leptospira serogroup Sejroe (serovar Hardjo). The data set can be described thus: Antigenic mass of fermenter culture by antigen Elisa. The class given is cell-based, L. interrogans (sensu lato). The settings on record: high LA BSA in EMJH. The protocol:
as §2, with “culture. Typical mid-phase cell density was at about 5×10^8 cells/ml, which was reached during day 2 of the main incubation. Upon supplementation with linoleic acid from the pure linoleic acid in ethanol stock, sometimes a small decrease in pH was noted, which was corrected by applying some NaOH.” for “culture.”
In a next study it was confirmed that the increase in antigenic mass upon supplementation with linoleic acid (C18:2) is a general phenomenon in Leptospira. […]

Regarding `CCCCCC=CCC=CCCCCCCCC(=O)O` [linoleic acid, 9, 12-octadecadienoic acid], the “increase in antigenic mass” value in data set [1] is 45%. Besides, the “increase in antigenic mass per unit of biomass” value was 67% in data set [2] (100 μg/ml C18:2) and 99% in data set [2] (200 μg/ml C18:2). For the same molecule, the “toxicity for the bacteria (cell numbers after supplementation)” value in data set [3] is “induced toxicity”. The “Ag. mass, Ag U/10^9 cells/ml” value in data set [4] (100 μg/ml added at 1 × 10^8 cells/ml, total 105 μg/ml, average of days 4-5) stood at 1783 Ag U/10^9 cells/ml; in data set [4] (100 μg/ml added at 5 × 10^8 cells/ml, total 105 μg/ml, average of days 4-5) it was 1564 Ag U/10^9 cells/ml; in data set [4] (100 μg/ml added at 9 × 10^8 cells/ml, total 105 μg/ml, average of days 4-5), 1656 Ag U/10^9 cells/ml; in data set [4] (supplem. pure C18:2 75 μg/ml, total 80 μg/ml, EMJH standard BSA, average of days 3-5), 1450 Ag U/10^9 cells/ml; in data set [4] (supplem. pure C18:2 150 μg/ml, total 155 μg/ml, EMJH standard BSA, average of days 3-5), 1550 Ag U/10^9 cells/ml. Moreover, the “relative Ag. mass (%)” value in data set [4] (100 μg/ml added at 1 × 10^8 cells/ml, average of days 4-5) is recorded as 226%; in data set [4] (100 μg/ml added at 5 × 10^8 cells/ml, average of days 4-5), 198%; in data set [4] (100 μg/ml added at 9 × 10^8 cells/ml, average of days 4-5), 210%; in data set [4] (supplem. pure C18:2 75 μg/ml, total 80 μg/ml, average of days 3-5), 199%; in data set [4] (supplem. pure C18:2 150 μg/ml, total 155 μg/ml, average of days 3-5), 213%. This molecule came in with an antigenic mass in data set [4] (100 μg/ml pure linoleic acid in ethanol added on day 2 (mid-exponential) to EMJH with high LA BSA, average of days 3-5) of 1767 Ag. U/1×10^9 cells. In addition, the “increase in relative antigenic mass” value in data set [4] (100 μg/ml single fatty acid, FIGS. 37 and 38) is recorded as 77%. The “increase of antigenic mass” value in data set [4] (25 instead of 5 μg/ml linoleic acid available) is on record as 124%. The “increase of the antigenic mass (in words)” value in data set [4] (additional 200 μg/ml pure linoleic acid, EMJH with high LA BSA) is given as “slightly less increase of the antigenic mass compared to that of the 100 μg/ml group”. In addition, the “toxicity to the culture” value in data set [5] was “toxic”. For the same molecule, the “increase in the antigenic mass” value in data set [6] (supplementation with linoleic acid, days 4 and 5) is 63%.

Regarding `CC/C=C\C/C=C\C/C=C\CCCCCCCC(=O)O` [C18:3, Linolenic acid], the “supplementation level showing cytotoxicity” value in the data set on Leptospira is at least 200 µg/mL.

“high LA BSA: a BSA that was created with a high level of linoleic acid”: the “relative Ag. mass (%)” value in data set [7] (C18:2 total 25 μg/ml (reference = 100), 2 day average) is on record as 100%; in data set [4] (supplem. high LA BSA giving 50 μg/ml C18:2, total 55 μg/ml, average of days 3-5) it was 221%; in data set [6] (high LA BSA in EMJH, C18:2 total 25 μg/ml (reference = 100), 2 day average), 100%. In addition, the “Antigenic mass, Ag U/10^9 cells/ml” value is listed as 287 Ag U/10^9 cells/ml in data set [7] (C18:2 total 25 μg/ml, 2 day average (days 5 and 6)); 5074 Ag U/10^9 cells/ml in data set [6] (high LA BSA in EMJH, C18:2 total 25 μg/ml, 2 day average (days 4 and 5)). This molecule gave an antigenic mass in data set [4] (high LA BSA at 1% w/v in EMJH, 25 μg/ml linoleic acid available, average of days 3-5) of 1636 Ag U/1×10^9 cells. Moreover, the “Ag. mass, Ag U/10^9 cells/ml” value in data set [4] (supplem. high LA BSA giving 50 μg/ml C18:2, total 55 μg/ml, EMJH standard BSA, average of days 3-5) came out at 1612 Ag U/10^9 cells/ml.
